Data taken from patent publication US10010581B2, “Syndecan peptides and polypeptides and uses thereof” (Wisconsin Alumni Research Foundation, priority 2012, dated 2018).
Where no end group is shown, it is not given here.

Assays:
Assay type in all cases: cell-based, human
[1] = system: HaCat keratinocytes or MCF10A mammary epithelial cells; assay: competition of LPA-induced haptotactic migration by GST fusion proteins or synthetic peptides (FIG. 10 summary); settings: 0.1 to 30 μM, 3 μM LPA
Protocol: FIGS. 10A-C. Schematic summary of experiments using either recombinant GST fusion proteins or synthetic peptides to disrupt Sdc1-dependent coupling of HER2 to α6β4 integrin necessary for LPA-induced haptotactic migration. GST-fusion proteins or synthetic peptides were added at concentrations ranging from 0.1 to 30 μM to the culture medium of human HaCat keratinocytes or MCF10A mammary epithelial cells in the presence or absence of 3 μM LPA. The ability of the constructs to inhibit the migration of the cells to close a scratch wound in confluent monolayers was determined and expressed as the concentration of inhibitor necessary to cause 50% inhibition of cell migration. (FIG. 10A) Competition using recombinant GST-fusion proteins. GST-Sdc1 fusion proteins bearing truncations or mutations were assessed for their competitive activity. […] (FIG. 10B) Competition with synthetic peptides. Peptides were purchased from commercial sources for testing as a putative synstatin inhibitory peptide (SSTNHER2). […] (FIG. 10C) Schematic representation of the active site in Sdc1. The active site is shown as a juxtamembrane site in the ectodomain of Sdc1. TM is the transmembrane domain and CYTO is the cytoplasmic domain. The sequence of a peptide derived from this site (SSTNHER2) is shown along with its homology across other mammalian Sdc1 species. The human STTNHER2 sequence is SEQ ID NO:23; the homology for STTNHER2 across mammals is SEQ ID NO:24.
(§1) HaCat or MCF10A cells were grown to confluence on 48 well-plates were starved for 6 hr by serum deprivation followed by introduction of a scratch wound in the monolayer using 200 μl pipette tip. Cells were cultured an additional 18 hr in DMEM containing mAb 3E1 (10 μg/ml) and goat anti-mouse IgG (50 μg/ml), EGF (10 ng/ml) or HGF (20 ng/ml) to cause cell migration in the presence or absence of inhibitors. Images were acquired using a PlanApo 20 (0.75 numerical aperture) objective and a Photometrics CoolSnap ES camera on a Nikon Eclipse TE2000U microscopy system and wound closure quantified.

[2] = system: HaCat keratinocytes; assay: scratch wound haptotaxis induced by LPA and clustering of α6β4 integrin; settings: LPA + α6β4 clustered with mAb 3E1 and secondary antibody, AG825 10 μM, Iressa 1 μM
From the text: FIG. 6A-D. Sdc1 is required for HER2/α6β4-dependent HaCat keratinocyte migration. (FIG. 6A) HaCat keratinocytes deposit laminin 332 (LN332) and migrate upon this using α3β1 and α6β4 integrins to close a scratch wound in the monolayer when stimulated to undergo chemotaxis in response to EGF. Alternatively, migration is induced by clustering the integrin (using mAb 3E1 against the integrin+a secondary antibody to cluster the first antibody and thus the entire complex) in the presence of LPA. This mimics the clustering that occurs when the cells engage LN332 and is referred to as haptotaxis. […] (FIG. 6B) Haptotaxis, stimulated by LPA and clustering of α6β4 integrin as described in FIG. 6A, is blocked by antibody directed against the α3β1 integrin or by BM165 which targets the binding site for α3β1 in LN332. […] (FIG. 6C) The potential roles of Sdc1 or Sdc4 in haptotaxis is tested by silencing their expression, together with attempting to rescue with either wild-type mouse Sdc1 or Sdc4, or mouse mutants unable to engage the β4 cytoplasmic domain (mSdc1ΔC2 or mSdc4ΔC2). Haptotaxis is blocked by silencing endogenous Sdc1, and this cannot be rescued by Sdc1ΔC2 that fails to engage the α6β4 integrin. Silencing Sdc4 also disrupts migration, but this traces to its role in activity of the α3β1 integrin and not a role in engaging the α6β4 integrin, as it can be rescued by mSdc4ΔC2 that fails to associate with the α6β4 integrin. (FIG. 6D) Immunoprecipitation of either native mSdc4 or mSdc4[…]C2 confirms that the mSdc4ΔC2 mutant no longer associates with the α6β4 integrin, but does with the α3β1 integrin. […]
HaCat or MCF10A cells were grown to confluence on 48 well-plates were starved for 6 hr by serum deprivation followed by introduction of a scratch wound in the monolayer using 200 μl pipette tip. […] Images were acquired using a PlanApo 20 (0.75 numerical aperture) objective and a Photometrics CoolSnap ES camera on a Nikon Eclipse TE2000U microscopy system and wound closure quantified. […]

[3] = system: MCF10A mammary epithelial cells; assay: scratch wound haptotaxis induced by clustering the α6β4 integrin; settings: α6β4 integrin clustered
Protocol: FIG. 9. Sdc1 ectodomain fragments and β4 dominant-negative mutant specific for Sdc1/α6β4/HER2 block MCF10A mammary epithelial cell migration. Haptotaxis of MCF10A human mammary epithelial cells induced by clustering the α6β4 integrin in a scratch wound assay is used to test the efficacy of inhibitors that target the Sdc1 mechanism. Cells are incubated either with entire recombinant syndecan ectodomains (Sdc1 ectodomain (S1ED) or Sdc4 ectodomain (S4ED) as a control), or an active fragment of mouse S1ED (S1ED^200-252) containing the inhibitory site.
as §1
The inventor used this assay to further truncate the S1ED recombinant proteins in order to find the smallest peptide that retains full inhibitory activity (e.g., SSTNHER2). The inventor tested mouse and human S1ED and find that they compete equally. […]

[4] = system: A431 cells; assay: A431 cell attachment and spreading on LN332; settings: 2 hr, mAb13 30 μg/ml, heparinase III 0.4 CU/ml, Sdc1 siRNA 100 nM
Protocol: FIGS. 2A-E. Requirement of syndecan-1 for A431 cell spreading on LN332. A431 […] cells plated on slides coated with 10 μg/ml LN332 (FIG. 2A) without treatment; (FIG. 2B) with blocking antibody 3E1 to α6β4; (FIG. 2C) prior treatment with heparinase III; or (FIG. 2D) prior treatment with siRNA specific for human Sdc1. (FIG. 2E) Quantification of spread cells plated on LN332 and treated with blocking antibody to β1 integrin (mAb13 30 μg/ml) or control IgG (20 μg/ml), 3E1 blocking antibody (20 ug/ml) to β4 integrin, heparinase III (0.4 CU/ml) or human Sdc1 siRNA (100 nM). Data represent triplicate experiments +/−S.D. (Wang et al., 2010).
Nitrocellulose-coated 10-well glass slides (Erie Scientific, Portsmouth, N.H.) were prepared as described by Beauvais and. Rapraeger (2010). Wells of slide were coated at 37° C. for 2 h with mAb 3E1 (3 μg/ml), diluted in phosphate-buffered saline (CMF-PBS: 135 mM NaCl, 2.7 mM KCl, 10.2 mM Na2HPO47H2O, and 1.75 mM KH2PO4, pH 7.4), and blocked with serum-free Hepes-buffered DMEM (pH 7.4) containing 0.1% heat-denatured bovine serum albumin (plating medium). Cells were lifted with trypsin (0.25% w/v), washed with DMEM, and regenerated in suspension for 1 h at 37° C. in DMEM containing 10% fetal bovine serum. Cells were then plated in wells (50 μl/well) in plating medium at 10^5 cells/ml. […]

| Molecule | competitive (inhibitory) activity on haptotactic migration [1] | haptotaxis (migration to close a scratch wound) [2] | further results |
| --- | --- | --- | --- |
| 210-236: truncated synthetic peptide, amino acids 210-236 of human Sdc1 (DFTFETSGENTAVVAVEPDRRNQSPVD; UniProt P18827 210-236, looked up, fragment) | loss of activity |  |  |
| 214-240: truncated synthetic peptide, amino acids 214-240 of human Sdc1 (ETSGENTAVVAVEPDRRNQSPVDQGAT; UniProt P18827 214-240, looked up, fragment) | loss of activity |  |  |
| COc1cc(/C=C(\C#N)C(N)=O)cc(CSc2nc3ccccc3s2)c1O [AG825] |  | blocks migration |  |
| COc1cc2ncnc(Nc3ccc(F)c(Cl)c3)c2cc1OCCCN1CCOCC1 [Iressa] |  | without effect |  |
| S1ED^200-252: active fragment of mouse S1ED containing the inhibitory site, recombinant fusion protein (QLPAGEGSGEQDFTFETSGENTAVAAVEPGLRNQPPVDEGATGASQSLLDRKE; also: recombinant fusion protein, partner not given here; UniProt P18828 200-252, looked up, fragment) |  |  | haptotaxis (migration to close a scratch wound) [3]: competes for haptotaxis |
| heparinase: enzyme treatment that blocks the ability of Sdc1 to bind LN332 (protein, UniProt Q59289 25-659, looked up) Heparin-sulfate lyase: QSSSITRKDFDHINLEYSGLEKVNKAVAAGNYDDAAKALLAYYREKSKAREPDFSNAEKPADIRQPIDKVTREMADKALVHQFQPHKGYGYFDYGKDINWQMWPVKDNEVRWQLHRVKWWQAMALVYHATGDEKYAREWVYQYSDWARKNPLGLSQDNDKFVWRPLEVSDRVQSLPPTFSLFVNSPAFTPAFLMEFLNSYHQQADYLSTHYAEQGNHRLFEAQRNLFAGVSFPEFKDSPRWRQTGISVLNTEIKKQVYADGMQFELSPIYHVAAIDIFLKAYGSAKRVNLEKEFPQSYVQTVENMIMALISISLPDYNTPMFGDSWITDKNFRMAQFASWARVFPANQAIKYFATDGKQGKAPNFLSKALSNAGFYTFRSGWDKNATVMVLKASPPGEFHAQPDNGTFELFIKGRNFTPDAGVFVYSGDEAIMKLRNWYRQTRIHSTLTLDNQNMVITKARQNKWETGNNLDVLTYTNPSYPNLDHQRSVLFINKKYFLVIDRAIGEATGNLGVHWQLKEDSNPVFDKTKNRVYTTYRDGNNLMIQSLNADRTSLNEEEGKVSYVYNKELKRPAFVFEKPKKNAGTQNFVSIVYPYDGQKAPEISIRENKGNDFEKGKLNLTLTINGKQQLVLVP |  |  | cell spreading on LN332 [4]: disrupted |
